This is an account of results in doi:10.1101/2024.07.04.602053v1, “Evidence for low affinity of GABA at the vesicular monoamine transporter VMAT2 – implications for transmitter co-release from dopamine neurons” (biorxiv, 2024).

For the assay, the target named is T1, human VMAT2-eGFP (HEK-293-VMAT2:eGFP) (Homo sapiens, UniProt Q05940).
T1 construct: gene SLC18A2
As to the kind of experiment: inhibition of [3H]dopamine uptake, digitonin-permeabilized cells. It is filed as cell-based.

T1 sequence (Q05940 whole entry): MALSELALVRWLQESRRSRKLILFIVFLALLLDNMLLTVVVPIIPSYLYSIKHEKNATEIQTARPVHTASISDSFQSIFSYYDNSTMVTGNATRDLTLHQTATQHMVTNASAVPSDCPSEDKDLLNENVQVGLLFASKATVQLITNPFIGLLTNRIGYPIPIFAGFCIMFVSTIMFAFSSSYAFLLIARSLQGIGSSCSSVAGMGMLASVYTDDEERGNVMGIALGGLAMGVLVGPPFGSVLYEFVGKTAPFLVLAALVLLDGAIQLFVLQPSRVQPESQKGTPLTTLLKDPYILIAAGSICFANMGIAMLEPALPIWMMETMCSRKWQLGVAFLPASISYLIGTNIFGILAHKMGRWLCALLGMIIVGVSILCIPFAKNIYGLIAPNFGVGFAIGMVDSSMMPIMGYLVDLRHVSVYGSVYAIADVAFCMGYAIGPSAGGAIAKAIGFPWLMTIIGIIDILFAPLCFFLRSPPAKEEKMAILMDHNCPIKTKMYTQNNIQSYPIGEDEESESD

As a reminder, the IC50 is the concentration needed to halve the response being measured. For `NCCc1ccc(O)c(O)c1` [dopamine], the half-maximal inhibitory concentration (IC50) came to 4900 nM.

In the case of `COc1cc2c(cc1OC)C1CC(=O)C(CC(C)C)CN1CC2` (centres unmarked) [tetrabenazine], the IC50 was 28.8 nM.
